Test results taken from patent publication US6020330A, “Hypolipidemic 1,4-benzothiazepine-1,1-dioxides” (Hoechst Aktiengesellschaft, priority 1997, dated 2000).

Molecular target: T1, ileal transporter of the rabbit (RIBAT) (Oryctolagus cuniculus, UniProt Q28727)
T1 construct: contained the total protein-coding region of the RIBAT; expressed in transfected cells; host or cells: CHO cells, stably transfected with pRIBAT8 (pcDNA1neo vector), G418-selected clonal line
T1 sequence (Q28727 1-347): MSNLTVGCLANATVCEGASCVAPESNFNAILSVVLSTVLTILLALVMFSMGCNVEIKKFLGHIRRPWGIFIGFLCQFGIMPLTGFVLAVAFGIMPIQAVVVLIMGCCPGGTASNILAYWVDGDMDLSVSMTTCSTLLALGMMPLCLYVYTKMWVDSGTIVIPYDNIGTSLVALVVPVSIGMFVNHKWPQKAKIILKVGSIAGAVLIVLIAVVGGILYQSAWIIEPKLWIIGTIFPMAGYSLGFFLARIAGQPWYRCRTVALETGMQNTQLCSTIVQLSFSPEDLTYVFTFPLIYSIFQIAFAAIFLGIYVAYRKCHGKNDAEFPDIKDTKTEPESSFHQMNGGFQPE
Assay: Inhibition of [24-14C]-taurocholic acid uptake in CHO/pRIBAT8 cells
Assay type: cell-based
Settings: 21° C., 30 minutes
From the text: These were derivatives of the generally known "Chinese hamster ovary" (CHO) cell line, which on account of incorporated expression plasmids additionally produced sodium-dependent bile acid transporters. The first cell line (CHO/pRIBAT8) was in this case the ileal transporter of the rabbit (RIBAT), the second (CHO/pHIBAT8) the ileal transporter of the human (HIBAT) and the third (CHO/pHLBAT5) the hepatic transporter of the human. All plasmids were based on the standard plasmid pCDNA1neo, which as important elements has a cytomegaloviral promoter for the permanent expression of heterologous genes and a gene for the production of cell resistance against the substance G418.
The starting material for the production of the plasmid for the RIBAT-producing cell line (pRIBAT8) was total RNA of the terminal ileum of the rabbit. […]
For the preparation of the genetically modified cell lines, CHO cells were transfected with DNA from pRIBAT8, pHIBAT8 or pHLBAT5 and cells which developed resistance against the selection substance G418 were selectively additionally cultured by addition of the substance to the cell medium. […] They could thereby be easily differentiated from cells without intact bile acid transporters with the aid of a fluorescence microscope. […]

- IC50: 70 nM
SMILES: CCCCC1(CC)CS(=O)(=O)c2cc(O[C@@H]3O[C@H](C(=O)O)[C@@H](O)[C@H](O)[C@H]3O)ccc2C(c2ccccc2)N1 (stereo partly shown) [Example 3]
